Reference: patent US20240199601A1, “QUINONE COMPOUND AND PHARMACEUTICAL USE THEREOF” (NANJING SHUPENG LIFE SCIENCE CO., LTD., priority 2021, published 2024)
“Also recorded” adds a separate entry of the source. Read-outs that look alike come from different tables or passages of the source.

Columns and labels:
[1] = cited from earlier work
acetaldehyde = conditions: 11.5 mg/kg body weight i.p. before ethanol by gavage; cited from earlier work
humans = conditions: cited from earlier work
[2] = cited from earlier work; remark: listed apart in the source
[3] = beagles; cited from earlier work
[4] = tested on: chronic constriction injury (CCI) model; conditions: CCI model of rats; cited from earlier work
[5] = tested on: inflammatory pain model (complete Freund's adjuvant); assay: Inflammatory pain model (complete Freund's adjuvant), mechanical pain threshold; assay type: in vivo, SD rats; conditions: for duration of the analgesic effect / analgesic effect 1.5 hours after oral administration: single oral dose (SP3101 20 mg/kg); for analgesic effect 1.5 hours after oral administration: mechanical pain threshold vs model group
Protocol: 4 SD rats with a body weight of 200-250 g were used as a blank control (NC), and normal saline was injected into the soles of the left feet of the rats. Inflammatory pain models of 18 rats were constructed, that is to say, 100 μL of a complete Freund's adjuvant was injected into soles of the left feet of the rats, mechanical pain thresholds of the left feet were detected by an ALMEMO2490 data collector 24 hours later, 2 rats with a pain threshold of greater than 15 were abandoned, and the other 16 rats were randomly divided into 4 groups with 4 rats in each group and then administered with water as a positive control (PC), SP3101 (20 mg/kg), PQQ (20 mg/kg) and ibuprofen (25 mg/kg/day) by gavage, respectively.

AMPK [6] = assay: AMPK phosphorylation level in a variety of cells; assay type: cell-based; conditions: 100 nM
rats = conditions: oral, cited from earlier work
AMPK [7] = assay: AMPK agonist test in RAW264.7 cells (protein hybridization, p-AMPK); assay type: cell-based; conditions: 0.1 μM, 24 hours
Protocol: (§1) RAW264.7 cells were inoculated into two six-well plates and enabled to grow to a density of about 90%, and SP3101 and SP3102 of different concentrations were added, respectively. 24 hours later, the cells were lysed with a radio immunoprecipitation assay (RIPA) lysis buffer, and the expression of proteins was detected by protein hybridization.
(§2) Phosphorylation of serine at the 127th site of AMPK is used as an activation marker. […] It can be seen that the compounds, represented by the SP3101 and the SP3102, of the present invention are used as an AMPK agonist.

[8] = tested on: autophagy related protein (LC3B); assay: LC3B expression in RAW264.7 cells (protein hybridization); assay type: cell-based; conditions: different concentrations, 24 hours
Protocol: as §1, §2

[9] = tested on: antioxidant transcription factor (Nrf2); assay: Nrf2 expression in RAW264.7 cells (protein hybridization); assay type: cell-based; conditions: different concentrations, 24 hours
Protocol: as §1, §2

[10] = human volunteers, 60 mg/day for one month
[11] = 20 mg/kg/day orally for three days, rats

O=C(O)c1cc(C(=O)O)c2c(n1)C(=O)C(=O)c1cc(C(=O)O)[nH]c1-2 [PQQ, 4,5-dihydro-4,5-dioxo-1H-pyrrolo(2,3-f)quinone-2,7,9-tricarboxylic acid]
excreted by the kidney (through urine) ([1]; 24 hours after the administration): 80%
absorbed by the small intestines ([1]; after oral administration): about 60%
concentration of acetaldehyde vs control group (acetaldehyde): much lower concentration of acetaldehyde
concentration of ethanol in the blood and liver vs control group (acetaldehyde): no obvious differences
safe dose determined by the FDA (rarely adverse events) (humans; healthy adults, body weight about 60 kg, every day): 240 mg
adverse responses (humans; [10]): no adverse responses
changes of kidney injury markers (humans; [10]): no changes of kidney injury markers
solubility in water [2]: slightly soluble in water
bioavailability [3]: about 12%
analgesic effect [4]: had an analgesic effect
analgesic effect 1.5 hours after oral administration on the first day [5, 11]: No analgesic effect
analgesic effect on day 2/3/4/5/6/7 [5, 11]: obvious analgesic effect
phosphorylation level of the AMPK (AMPK [6]): significantly up-regulate
Adverse response (rats; female rats, 14 days): Reversible; also recorded: Increased kidney; also recorded: Increased urine
Median lethal dose (LD50) (rats; female rats, 14 days): 500-1,000 mg/kg/day
Adverse response (rats; female rats, 91 days, 400 mg/kg/day): None
Adverse response (rats; male rats, 14 days): None
Median lethal dose (LD50) (rats; male rats, 14 days): 1,000-2,000 mg/kg/day
Adverse response (rats; male rats, 91 days, 400 mg/kg/day): None

CC(=O)Oc1cc(C(=O)O)c2c(n1)C(=O)C(=O)c1cc[nH]c1-2 [SP3102, 7-acetoxy-4,5-dioxo-4,5-dihydro-1H-pyrrolo[2,3-f]quinone-9-carboxylic acid]
activation of AMPK (expression of p-AMPK) (AMPK [7]): obviously activate the AMPK
duration of the analgesic effect ([5]; rats): 72 h
analgesic effect 1.5 hours after oral administration ([5]; rats): obvious analgesic effect
phosphorylation level of the AMPK (AMPK [6]): significantly up-regulate
expression of autophagy related protein (LC3B) [8]: also increased
expression of antioxidant transcription factor (Nrf2) [9]: increased in a dose-dependent manner

COc1cc(C(=O)O)c2c(n1)C(=O)C(=O)c1cc[nH]c1-2 [SP3103, 7-methoxy-4,5-dioxo-4,5-dihydro-1H-pyrrolo[2,3-f]quinone-9-carboxylic acid]
duration of the analgesic effect ([5]; rats): 72 h
analgesic effect 1.5 hours after oral administration ([5]; rats): obvious analgesic effect

CC(C)Cc1ccc(C(C)C(=O)O)cc1 (stereo not drawn) [ibuprofen]
analgesic effect 1.5 hours after each oral administration ([5]; 25 mg/kg once a day orally for 3 days, day 1/2/3, rats): obvious analgesic effect
analgesic effect before administration ([5]; 25 mg/kg once a day orally, rats, data not shown): no analgesic effect
analgesic effect on the fourth day without administration ([5]; after 25 mg/kg once a day orally for 3 days, rats): no analgesic effect
